# Data: patent publication US9394300B2, “Quinolone derivatives” (Cadila Healthcare Limited, priority 2012, dated 2016)
# What was measured:
# C57 Mice [1] = assay: Estimating hemoglobin levels in mice; type: in vivo; details: oral once daily for 7 consecutive days at 20 mg/kg, whole blood on 8th day
# Procedure: (2) Protocol for Estimating Hemoglobin Levels in Mice
# C57 mice were administered compounds of the present invention at 10 ml/kg by oral route daily once in the morning for 7 consecutive days at 20 mg/kg. On 8th day animals were bled by retro-orbital puncture under light ether anesthesia in microfuge tubes containing 2% EDTA (10 μl/100 μl of blood) for whole blood. Hemoglobin, Reticulocyte count and RBC count were measured using standard procedures.
# C57 Mice [2] = assay: Estimating circulating EPO release in mice (plasma EPO by mouse EPO ELISA); type: in vivo; details: plasma six hours after administration, EPO in control = 62 ng/mL
# Procedure: (1) Protocol for Estimating Circulating EPO Release in Mice
# C57 Mice were administered various doses (10 mg/kg, 30 mg/kg, 50 mg/kg, 100 mg/kg) of compounds of the present invention by oral gavage at 10 ml/kg. Six hours after compound administration, mice were bled by retro-orbital puncture, under light ether anesthesia in microfuge tubes containing 2% EDTA (10 μl/100 μl of blood). Plasma was separated and analyzed for EPO content by mouse EPO ELISA.
compound,measurement,setting,value
"O=C(O)CNC(=O)c1c(O)c2ccccc2n(OCC2CC2)c1=O [Example 2, 2-(1-(cyclopropylmethoxy)-4-hydroxy-2-oxo-1,2-dihydroquinoline-3-carboxamido)acetic acid]",Hemoglobin (g/dL) 20 mg/kg compound,C57 Mice [1],16.3 g/dL
same,EPO (ng/mL) oral gavage 10 mg/kg,C57 Mice [2],396 ng/mL
same,EPO (ng/mL) oral gavage 30 mg/kg,C57 Mice [2],4822 ng/mL
"C=CCOn1c(=O)c(C(=O)NCC(=O)O)c(O)c2ccccc21 [Example 15, 2-(1-(allyloxy)-4-hydroxy-2-oxo-1,2-dihydroquinoline-3-carboxamido)acetic acid]",Hemoglobin (g/dL) 20 mg/kg compound,C57 Mice [1],13.2 g/dL
same,EPO (ng/mL) oral gavage 10 mg/kg,C57 Mice [2],315 ng/mL
same,EPO (ng/mL) oral gavage 50 mg/kg,C57 Mice [2]; oral gavage 50 mg/kg,4269 ng/mL
"CCCOn1c(=O)c(C(=O)NCC(=O)O)c(O)c2ccccc21 [Example 21, 2-(4-hydroxy-2-oxo-1-propoxy-1,2-dihydroquinoline-3-carboxamido) acetic acid]",Hemoglobin (g/dL) 20 mg/kg compound,C57 Mice [1],15.8 g/dL
same,EPO (ng/mL) oral gavage 10 mg/kg,C57 Mice [2],190 ng/mL
same,EPO (ng/mL) oral gavage 30 mg/kg,C57 Mice [2],6234 ng/mL
